Laboratory results as given in publication PMC9889419 (Pharmacological Reports, 2022).
Counter-ions that a name gives are not always drawn.

Key:
[1] = tested on: NIE-115 cells; assay: Patch-clamp (sodium currents); type: cell-based; details: 100 µM
[2] = tested on: organotypic hippocampal slice cultures; assay: Neuroprotection primary screen, excitotoxin NMDA; type: cell-based; details: NMDA 10 µM; 10 and 100 µM compound
Text: Gompound 1 : ADD Number: ItSot+ Batct: lE- Date Started:
Compound 2 : ADD Number: Froso Batct: le Date Completed i l|26-M ar -20 1 O […]
Excitotoxin: lNmoa lnsult Duration: la Uouo Solvent:
Primary Screen Results: ffi […]
Al lruuoa rolrr,| A2lr'rrr,tOa r Olrrr,t * --.- A3 lr'rnroa r oprvr + lsaoot+ t oplrl+aesogo iopM
BZ lr.rrr,ron ropr,t , -_-_-- 83 lluoa topt',r * jffi 1 4 t oopM.€sroso 1 oolrM la+eota tooptu*aasoeo roffi […]
The 'Primary screen Experiment" is a qualitative assessment of the ability of a compound to prevent excrtotoxic cell death. organotypic hippocampal slice cultures are treated *ltn r.i-."iivr-o-"spartate (NMDA) or kainic acad (KA) to induce neuronal cell death' Propidium iodide (Pl), a membrane-imper.eant cornpouna, is included in all wells of the culture plate.
Dying cells have compromised *]lT^"Toj*::, ttr. er rnJy oin "" into the cell, intercatate with DNA and fluoresce. Thus, the intensity of the Pl fluorescence is proportional to the amount of cell death in lhe individual itices. ttippocampat slice cullures are treated with the excitotoxin alone, or *i er. inoi"ui"o above, with the excitotoxin and either one -qf]bar-a Investigalional compounds at the concentrations indicated. lf neuroprotectron occurs as a consequence of the added […]
been treated with the excitotoxin alone.
(1 picture or pasted object on this page, not shown here)

[3] = tested on: STZ-treated mice; assay: Streptozotocin-induced diabetic neuropathy, von Frey test; type: in vivo; details: for elevation of pain threshold (von Frey): STZ-treated mice
Description: Assessment of tactile allodynia in STZ-treated mice—von Frey test. Mechanical hyperalgesia was tested as previously described in detail [25] using the electronic von Frey device (Bioseb, France). Briefly, in a quiet room, mice were placed in test compartments on an elevated metal mesh grid and allowed to acclimate for 30 min. After a habituation period each mouse was tested 3 times in the plantar region of hind paw, to obtain baseline values. Subsequently, the mice were pre-treated with the tested compound dissolved in saline at doses 1, 10 and 30 mg/kg. Thirty minutes later the animals were tested again and mean values of mechanical withdrawal threshold were obtained for each mouse.

[4] = tested on: STZ-treated mice; assay: Streptozotocin-induced diabetic neuropathy, hot plate test; type: in vivo
Description: Induction of diabetes. To induce diabetes the mice were injected with a single ip streptozotocin (STZ, Sigma-Aldrich, Germany) dose (200 mg/kg) dissolved in 0.1 N citrate buffer. Blood glucose levels were measured 1 h before and repeatedly 1, 2 and 3 weeks after STZ injection using a blood glucose monitoring system (AccuChek Active, Roche, France). Blood samples (5 µL) for the measurement of glucose concentration were obtained from the mouse tail vein. The animals were defined as diabetic when their blood glucose concentration exceeded 300 mg/dL and only those mice were used as diabetic mice in further tests. The body weight of mice was monitored 1 h before and 21 days after STZ injection.
Assessment of heat hyperalgesia in STZ-treated mice—hot plate test. Thermal hyperalgesia was assessed using the hot plate apparatus (Bioseb, France). In this test, after the establishment of pre-drug latency to pain reaction for each animal, the mice were treated with the tested compound and 30 min later they were placed into a glass cylinder on a hot plate set at 55 °C and observed for a nocifensive response (hind paw licking or jumping). The cut-off time was established at 30 s.

[5] = Forced degradation studies (HPLC); type: physicochemical
Description: HPLC conditions and equipment. The liquid chromatography system HITACHI High-Technologies Corporation (Tokyo, Japan) equipped with a solvent delivery pump (L-2130), a degasser, an autosampler (L-2200), a photodiode array detector (L-2455) and a column oven (L-2350) was used. […] The injection volume was 20 µL. Based on the registered absorption spectrum detection wavelength was selected as 230 nm. The analysis time was 15 min.
Irradiation conditions. Irradiation was conducted in a climatic chamber KBF-ICH 240 APT.lineTM (Binder GmbH, Tuttlingen, Germany) at 25 °C and 60% humidity using UVA radiation (320–400 nm) with maximum emission at 365 nm. The intensity of radiation was determined using a radiometer type VLX-3 W, Vilber Lourmat, with a CX-365 sensor, to be each time of […]. The distance between the samples and the radiation source was 13 cm.
Degradation in acidic solution. […] 8 mL of the examined solution was transferred to a glass vial and heated in an oven at 70 °C. The sample volume of 0.5 mL was taken and diluted with 0.5 mL of water. The solution was analyzed three times by HPLC method.
Degradation in basic solution. […] 4 mL of examined solution was transferred to glass vials of 8 mL capacity and heated in an oven at 70 °C. The volume of 0.5 mL was taken and diluted with 0.5 mL of 0.5 M HCl. The solution was analyzed three times by HPLC method.
Degradation in phosphate buffer at pH = 7.0. […] The volume of 8 mL of examined solution was transferred to glass vials of 8 mL capacity and stored in a dark place at 25 °C or heated in an oven at 70 °C. The volume of 0.5 mL of solution was taken and diluted with 0.5 mL of water. The solution was analyzed by HPLC method.
Degradation in the presence of oxidative agent. […] The samples were stored at 25 °C. The volume of 0.5 mL of solution was taken and diluted with 0.5 mL of water. The solution was analyzed three times by HPLC method. […] The volume of 8 mL of examined solution was transferred to glass vials of 8 mL capacity and heated in an oven at 40 °C. The volume of 0.5 mL of solution was taken and diluted with 0.5 mL of water. The solution was analyzed by HPLC method.
Degradation in the presence of reducing agent. […] 8 mL of the examined solution was transferred to 8 mL glass vials and stored at 25 °C and 40 °C. The volume of 0.5 mL of solution was taken and diluted with 0.5 mL of water. The solution was analyzed three times by HPLC method.
Photodegradation under UV irradiation. […] 2 mL of the examined solution was transferred to a quartz Petri-dishes with diameter 4 cm and sealed with parafilm. Dark control samples were prepared in the same way, but they were secured with aluminum foil. The examined samples and the dark control samples were placed in a climatic chamber at […] and humidity 60% and irradiated for 96 h. The volume of 0.5 mL of solution was taken to the vials and the solution was analyzed by HPLC method.

[6] = Acute toxicity (LD50); details: in vivo; for LD50 at 24 h: iv; for LD50 at 72 h: po
Description: Acute toxicity. The tested compounds were dissolved in 0.9% saline and administered po and injected into the caudal vein (iv) of mouse or rats at the constant volume of 10 mL/kg and 1 mL/kg, respectively. Each dose was given to six animals.

[7] = in vivo; details: rat, ip
Description: The assays were carried out within the Epilepsy Therapy Screening Program (ETSP, previously known as the Anticonvulsant Screening Program, ASP), Epilepsy Branch, National Institute of Neurological and Communicative Disorders and Stroke, National Institutes of Health in Rockville, MD, USA [23].
The obtained compounds were screened for antiseizure activity and neurotoxicity in vivo within the Epilepsy Therapy Screening Program (ETSP, previously known as the Anticonvulsant Screening Program, ASP), Epilepsy Branch, National Institute of Neurological and Communicative Disorders and Stroke, National Institutes of Health in Rockville, MD, USA [23].

## CCC(CO)NCCOc1c(C)cccc1Cl (stereo not shown) [Compound 4, R,S-2-((2-(2-chloro-6-methylphenoxy)ethyl)amino)butan-1-ol]
[1]; holding potential -60 mV
  % of control +/- SEM: 26 +/- 3%
[1]; holding potential -90 mV
  % of control +/- SEM: 55 +/- 5%
[2]
  Test Result (neuroprotection): No Neuroprotection

## CCC(CO)NCCOc1c(C)cccc1Cl (stereo not shown) [KM-408, R,S-2-((2-(2-chloro-6-methylphenoxy)ethyl)amino)butan-1-ol hydrochloride]
[3]; 1 mg/kg
  elevation of pain threshold (von Frey): 132%
[3]; 10 mg/kg
  elevation of pain threshold (von Frey): 125%
[3]; mice, ip
  STZ-induced pain (von Frey): active at: 1 mg/kg
[4]; 1 mg/kg, STZ-treated mice
  effect in hot plate test: not effective
[4]; 10 mg/kg, STZ-treated mice
  latency to pain reaction: 15.8 ± 2.2 s
  prolongation of latency vs. diabetic control: 63%
[4]; 30 mg/kg, STZ-treated mice
  latency to pain reaction: 21.6 ± 2.2 s
  prolongation of latency vs. diabetic control: 123%
[4]; mice, ip
  STZ-induced pain (hot plate): active at: 10 mg/kg
[5]; 0.5 M HCl, 70 °C, 232 h
  degradation: 1.65%
[5]; 0.5 M NaOH, 70 °C, 232 h
  degradation: 2.02%
[5]; CuSO4, 192 h
  degradation: 1.65%
[5]; H2O2, 168 h
  degradation products: 1.84%
[5]; phosphate buffer pH 7.0, 25 °C, 240 h
  degradation: 1.52%
[5]; phosphate buffer pH 7.0, 70 °C, 168 h
  degradation: 1.96%
[5]; photodegradation, 96 h
  degradation: 1.43%
[5]; reducing agent, 40 °C, 168 h
  degradation: 1.50%
[6]; mouse, mice
  LD50 at 24 h: 19.8 mg/kg
  LD50 at 72 h: 246 mg/kg
[6]; rat, rats
  LD50 at 24 h: 22.6 mg/kg
  LD50 at 72 h: 670 mg/kg
[7]
  TD50: 54.3 mg/kg
